Results published in article PMC6348443 (Journal of Medicinal Chemistry, 2018).
Entries after “also recorded” stand apart in the source; their conditions may differ. Structures can show the parent of a compound that is named as a salt. Where two headings read alike, the source gives them in different places.

What was measured:
KOR [1] = target: T1, KOR (Homo sapiens, UniProt P41145); experiment: [35S]GTPγS binding assay, CHO-hKOR membranes; format: biochemical; conditions: for EC50: [35S]GTPγS, CHO human KOR membranes, read-out: KOR EC50; for Emax: relative to reference full agonist U69,593, read-out: KOR % stim.; for functional profile at KOR (full/partial agonist): partial agonist <85% of the response to U69,593
T1 construct: host or cells: CHO (CHO-hKOR)

DOR [2] = target: T2, DOR (Homo sapiens, UniProt P41143); experiment: [35S]GTPγS binding assay, CHO-hDOR membranes; format: biochemical; conditions: for EC50: [35S]GTPγS, CHO human DOR membranes; for Emax: relative to reference full agonist DPDPE, read-out: DOR % stim.; for increased agonist potency at DOR vs MOR: [35S]GTPγS EC50; for functional profile at DOR (full/partial agonist): full agonist ≥85% of the response to DPDPE
T2 construct: host or cells: CHO (CHO-hDOR)

MOR [3] = target: T3, MOR (Rattus norvegicus, UniProt P33535); experiment: competition radioligand binding, rat brain membranes, [3H]DAMGO; conditions: for Ki: rat brain membranes, read-out: opioid receptor binding Ki MOR; for increase in MOR binding affinity vs comparator: 17b vs 4b, 16a/b vs 7a/b, 22a/b vs 7a, 7b and 9b, 14a vs 14b
T3 construct: Membranes were prepared from Sprague-Dawley rat brains or guinea-pig brains according to the described procedures; tissue Labortierkunde und Laborgenetik, Medizinische Universität Wien; host or cells: Sprague-Dawley rat brain without cerebella

DOR [4] = target: T4, DOR (Rattus norvegicus, UniProt P33533); experiment: competition radioligand binding, rat brain membranes, [3H][Ile5,6]deltorphin II; conditions: rat brain membranes; read-out: opioid receptor binding Ki DOR
T4 construct: Membranes were prepared from Sprague-Dawley rat brains or guinea-pig brains according to the described procedures; tissue Labortierkunde und Laborgenetik, Medizinische Universität Wien; host or cells: Sprague-Dawley rat brain without cerebella

DOR [5] = target: T2, DOR; experiment: competition radioligand binding, CHO cell membranes expressing human DOR, [3H]diprenorphine
Procedure: (§1) Membranes from CHO cells expressing human opioid receptors were prepared in 50 mM Tris-HCl buffer (pH 7.7) according to a previously described procedure.[64] Cells expressing human opioid receptors grown at confluence were removed from the culture plates by scraping, homogenized in 50 mM Tris buffer (pH 7.7), using a Polytron homogenizer, then centrifuged once and washed by an additional centrifugation at 27 000g for 15 min, at 4 °C. The final pellet was resuspended in Tris buffer and stored at −80 °C until use. Protein content of brain and cell membrane preparation homogenates was determined by the method of Bradford using bovine serum albumin as the standard.[65]
(§2) Rat brain membranes were incubated with either [^3H]DAMGO (1 nM, 45 min, 35 °C) or [^3H][Ile^5,6]deltorphin II (0.5 nM, 45 min, 35 °C) for labeling MOR or DOR receptors, respectively. Guinea-pig brain membranes were incubated with [^3H]U69,593 (1 nM, 30 min, 30 °C) for labeling KOR. Binding assays with CHO cell membranes were conducted at 25 °C for 60 min using [^3H]DAMGO (1 nM) or [^3H]diprenorphine (0.2 nM) for labeling MOR or DOR, respectively. Nonspecific binding was determined using 10 μM naloxone (rodent brain) or 1–10 μM of the unlabeled counterpart of each radioligand (CHO cells). Reactions were terminated by rapid filtration through Whatman glass fiber GF/C filters. Filters were washed three times with 5 mL of ice-cold 50 mM Tris-HCl buffer (pH 7.4) using a Brandel M24R cell harvester (Gaithersburg, MD). Radioactivity retained on the filters was counted by liquid scintillation counting using a Beckman Coulter LS6500 (Beckman Coulter Inc., Fullerton, CA). All binding experiments were performed in duplicate and repeated at least three times.
(§3) aDetermined in competition radioligand binding assays using CHO cell membranes expressing
(§4) human MOR and DOR. Values represent the mean ± SEM of three independent experiments each

MOR [6] = target: T5, MOR (Homo sapiens, UniProt P35372); experiment: [35S]GTPγS binding assay, CHO-hMOR membranes; format: biochemical; conditions: for Emax: read-out: MOR % stim.; for functional profile at MOR (full/partial agonist): full agonist ≥85% of the response to DAMGO
T5 construct: host or cells: CHO (CHO-hMOR)

MOR [7] = target: T5, MOR; experiment: competition radioligand binding, CHO cell membranes expressing human MOR, [3H]DAMGO
Procedure: as §1, §2, §3, §4

male CD1 mice = experiment: acetic acid-induced writhing assay after sc administration; format: in vivo, mouse; conditions: for ED50: Mus musculus, 0.5 h, read-out: ED50 (95% CI), mice, sc, inhibition of writhing 30 min after drug administration
KOR [8] = target: T6, KOR (Cavia porcellus, UniProt P41144); experiment: competition radioligand binding, guinea-pig brain membranes, [3H]U69,593; conditions: for Ki: guinea-pig brain membranes, read-out: opioid receptor binding Ki KOR
T6 construct: Membranes were prepared from Sprague-Dawley rat brains or guinea-pig brains according to the described procedures; tissue Labortierkunde und Laborgenetik, Medizinische Universität Wien; host or cells: guinea-pig brain without cerebella

[9] = system: peripheral opioid receptors; experiment: antagonism by naloxone methiodide in the acetic acid-induced writhing assay; format: in vivo, mouse; conditions: sc co-administration with naloxone methiodide 1 mg/kg; agonist 50 or 200 μg/kg sc; 30 min
From the text: To determine whether targeted 6-amino acid and 6-dipeptide analogues inhibit writhing behavior in mice through peripheral opioid receptors activation, we used naloxone methiodide.[27]
Values are shown as mean of writhes ± SEM (n = 6–7 mice per group). ***P < 0.001 vs control group; ^#P < 0.05, ^##P < 0.01 and ^###P < 0.001 vs agonist treated group, ANOVA with Tukey’s post hoc test.
Writhing was induced in male CD1 mice by ip injection of a 0.6% acetic acid aqueous solution as described previously.[48],[62] Groups of mice were administered sc different doses of test compound or saline (control), and 5 min prior to testing (25 min after drug or saline), each animal received an ip injection of acetic acid solution. Each mouse was placed in individual transparent Plexiglas chambers, and the number of writhes was counted during a 10 min observation period. […] For the antagonism study, naloxone methiodide was sc co-administered with the respective opioid agonist, and writhing was assessed as described above.

[10] = [35S]GTPγS, CHO human MOR membranes, read-out: MOR EC50
[11] = relative to reference full agonist DAMGO

| Compound | EC50 (KOR [1]) [nM] | Emax (KOR [1]) [%] | EC50 (DOR [2]) [nM] | Emax (DOR [2]) [%] | Ki (MOR [3]) [nM] | increase in MOR binding affinity vs comparator (MOR [3]; rat brain) | Ki (DOR [4]) [nM] | Ki (DOR [5]) [nM] | EC50 (MOR [6]; [10]) [nM] | Emax (MOR [6]; [11]) [%] | Ki (MOR [7]) [nM] | ED50 (male CD1 mice) [mg/kg] | Ki (KOR [8]) [nM] | functional profile at MOR (full/partial agonist) (MOR [6]) | effect of naloxone methiodide on antinociceptive effect [9] | functional profile at KOR (full/partial agonist) (KOR [1]) | also measured |
| --- | --- | --- | --- | --- | --- | --- | --- | --- | --- | --- | --- | --- | --- | --- | --- | --- | --- |
| CO[C@@]12CCC(N[C@@H](CCC(=O)O)C(=O)O)[C@@H]3Oc4c(O)ccc5c4[C@@]31CCN(C)[C@@H]2C5 (stereo in doubt) [Compound 14a, (2S)-2-[(4,5α-Epoxy-3-hydroxy-14β-methoxy-17-methylmorphinan-6β-yl)-amino]pentanedioic Acid Dihydrochloride] | 1170 ± 448 | 68 ± 5 | 10.8 ± 2.1 | 98 ± 3 | 1.45 ± 0.09 | 8 times | 9.03 ± 0.7 | 24 ± 11.8 | 3.11 ± 1.32 | 105 ± 3 | 3.29 ± 0.61 | 0.0361 | 87.2 ± 4.2 |  |  |  | increased KOR affinity vs 6β analogue 14b (KOR [8]; guinea-pig brain): 14 times |
| CO[C@@]12CC[C@@H](N[C@@H](Cc3ccccc3)C(=O)O)[C@@H]3Oc4c(O)ccc5c4[C@@]31CCN(C)[C@@H]2C5 [Compound 4b] | 1170 ± 505 | 81 ± 9 | 0.48 ± 0.16 | 94 ± 8 |  |  |  | 1.12 ± 0.23 | 6.76 ± 3.16 | 99 | 4.15 ± 0.47 | 0.579 |  | full agonist |  |  | increased agonist potency at DOR vs MOR (DOR [2]): 14 times; MOR % stim. (MOR [6]; [11]): 99 ± 8% |
| CO[C@@]12CC[C@H](N[C@@H](CCCCN)C(=O)O)[C@@H]3Oc4c(O)ccc5c4[C@@]31CCN(C)[C@@H]2C5 [Compound 8a, (2S)-6-Amino-2-[(4,5α-epoxy-3-hydroxy-14β-methoxy-17-methylmorphinan-6α-yl)amino]hexanoic Acid Trihydrochloride] | 118 ± 26 | 79 ± 13 | 152 ± 2 | 106 ± 4 |  |  |  |  | 2.25 ± 0.07 | 90 ± 8 |  | 0.0206 |  |  | reversed |  |  |
| CO[C@@]12CC[C@@H](N[C@@H](Cc3c[nH]c4ccccc34)C(=O)O)[C@@H]3Oc4c(O)ccc5c4[C@@]31CCN(C)[C@@H]2C5 [Compound 10b, (2S)-2-[(4,5α-Epoxy-3-hydroxy-14β-methoxy-17-methylmorphinan-6β-yl)-amino]-3-(1H-indolo-3yl)propionic Acid Dihydrochloride] | 181 ± 49 | 87 ± 8 | 2.18 ± 0.72 | 96 ± 5 |  |  |  |  | 1.64 ± 0.43 | 101 ± 11 |  | 0.0927 |  |  | reversed; also recorded: antagonized | full agonists |  |
| CO[C@@]12CC[C@@H](N[C@@H](CCC(=O)O)C(=O)O)[C@@H]3Oc4c(O)ccc5c4[C@@]31CCN(C)[C@@H]2C5.Cl.Cl [Compound 14b, (2S)-2-[(4,5α-Epoxy-3-hydroxy-14β-methoxy-17-methylmorphinan-6β-yl)amino]pentanedioic Acid Dihydrochloride] | 2230 ± 238 | 76 ± 0.7 | 4.6 ± 1.79 | 101 ± 3 | 11.6 ± 0.7 |  | 7.64 ± 0.64 | 18 ± 3.5 | 12.7 ± 4.7 | 98 ± 4 | 28.7 ± 7.9 |  | 1250 ± 70 |  |  |  | increased agonist potency at DOR vs MOR (DOR [2]): 2–4 times |
| CO[C@@]12CC[C@H](N[C@H](Cc3ccccc3)C(=O)O)[C@@H]3Oc4c(O)ccc5c4[C@@]31CCN(C)[C@@H]2C5 [Compound 17a, (2R)-2-[(4,5α-Epoxy-3-hydroxy-14β-methoxy-17-methyl-morphinan-6α-yl)-amino]-3-phenylpropionic Acid Dihydrochloride] | 215 ± 32 | 80 ± 11 | 8.36 ± 0.28 | 95 ± 10 | 0.61 ± 0.01 |  | 3.69 ± 0.59 | 5.26 ± 0.42 | 0.77 ± 0.24 | 96 ± 4 | 0.85 ± 0.01 | < 0.02 | 76.4 ± 9.3 |  |  | full agonists | EC50 (MOR [6]): < 1 nM; ED50 (95% CI) (male CD1 mice; mice, inhibition of writhing 30 min after drug administration): 18.1 (8.37–39.2) μg/kg |
| CO[C@@]12CC[C@@H](N[C@H](Cc3ccccc3)C(=O)O)[C@@H]3Oc4c(O)ccc5c4[C@@]31CCN(C)[C@@H]2C5 [Compound 17b, (2R)-2-[(4,5α-Epoxy-3-hydroxy-14β-methoxy-17-methyl-morphinan-6β-yl)-amino]-3-phenylpropionic Acid Dihydrochloride] | 611 ± 350 | 92 ± 10 | 1.71 ± 0.78 | 96 ± 1 | 1.28 ± 0.38 | ca. 2 times | 1.19 ± 0.13 | 2.17 ± 0.26 | 0.68 ± 0.29 | ~80 | 1.84 ± 0.14 | 0.25 | 139 ± 23 | partial agonist |  | full agonists | EC50 (MOR [6]): < 1 nM |
| CO[C@@]12CC[C@@H](N[C@H](C(=O)N[C@@H](Cc3ccc(O)cc3)C(=O)O)C(C)C)[C@@H]3Oc4c(O)ccc5c4[C@@]31CCN(C)[C@@H]2C5 [Compound 22b, (2S)-2-[[(4,5α-Epoxy-3-hydroxy-14β-methoxy-17-methylmorphinan-6β-yl)amino]-(2S)-3-methylbutyrylamino]-3-(4-hydroxyphenyl)propionic Acid] | 1880 ± 594 | 63 ± 0.1 | 1.56 ± 0.83 | 89 ± 7 | 0.44 ± 0.01 | 4 to 7 times | 1.38 ± 0.22 |  | 0.16 ± 0.06 | ~70 |  |  | 390 ± 49 | partial agonists |  |  | functional profile at DOR (full/partial agonist) (DOR [2]): full agonists; KOR/MOR selectivity ratio (MOR [3]; from Ki, guinea-pig (KOR) and rat (MOR) brain): 886; Ki (DOR [5]; CHO cell membranes expressing human DOR, read-out: Ki DOR): 1.39 ± 0.13 nM; increased MOR potency than 1 (MOR [6]; [35S]GTPγS EC50): 24 times; selectivity for MOR over DOR (MOR [6]; [35S]GTPγS EC50): 10 times; Ki (MOR [7]; CHO cell membranes expressing human MOR, read-out: Ki MOR): 0.64 ± 0.07 nM; lower KOR affinity vs 6α analogue 22a (KOR [8]; guinea-pig brain): about 6 times |
| CO[C@@]12CC[C@@H](NCC(=O)NCC(=O)O)[C@@H]3Oc4c(O)ccc5c4[C@@]31CCN(C)[C@@H]2C5 [Compound 23a, 2-[2-[(4,5-Epoxy-3-hydroxy-14β-methoxy-17-methylmorphinan-6β-yl)amino]acetylamino]acetic Acid] | 885 ± 298 | 75 ± 0.7 | 2.84 ± 1.63 | 102 ± 7 |  |  |  |  | 4.39 ± 0.54 | 85 ± 9 |  | 0.104 |  | full agonist | antagonized |  | functional profile at DOR (full/partial agonist) (DOR [2]): full agonist; lower affinity at MOR vs 2a (MOR [3]; rat brain): about 5 times; higher antinociceptive potency than morphine (male CD1 mice; writhing assay, mice): 4 times |
